Data as given in US8178509B2, “Method to treat sickle cell disease” (University of Virginia Patent Foundation, priority 2006, dated 2012).

Key:
platelets = assay: Platelet aggregation (singlet loss) in platelet-rich plasma after in vivo pretreatment, ADP activation; set-up: species or system NY-S (NY1DD) mice; conditions: pretreated in vivo, Alzet mini-pump, 10 ng/kg/min, O/N; all doses of ADP added in vitro
Description: Adenosine 5′-diphosphate (ADP) is a critical mediator of platelet activation. Two members of the P2Y-receptor family (P2Y1, P2Y12) are responsible for the initiation and amplification of the aggregation response.
Mice were first anesthetized with the use of a vaporizer (Vapomatic, A.M. Bickford, INC., Wales Center, N.Y.) delivering 1.5% isoflurane (Abbott Laboratories, Chicago, Ill.). The animals were ventilated with 100% oxygen (tidal volume 0.3 mL; rate 125 breaths/min; respiratory/expiratory ratio 1; positive end-expiratory pressure (PEEP) was between 5 and 10 cm H2O) at a low rate of 0.8 L/min via an animal ventilator (Columbus Instruments, Columbus, Ohio).
Platelet isolation. […]
Platelet aggregation assay—single particle counting. […] The reaction was quenched with glutaraldehyde (1%), and platelet aggregation then evaluated by the loss of platelet singlets, using a resistive-particle counter. The loss of platelet singlets was expressed as a percent value of the control platelet count (platelet count in PRP incubated for 10 minutes in 37° C. in the absence of shear forces).

NY-S (NY1DD) mice [1] = assay: Pulmonary histology (H&E), hypoxia-induced vascular congestion; format: in vivo; conditions: 3 hour hypoxia (10% O2); Alzet mini-pump, 10 ng/kg/min, overnight, started prior to hypoxic stress
Description: Under normoxic conditions, while the lungs of the wild type mice are clear, there is a high incidence of focal vascular congestion in the NY-S (NY1DD) mice (FIGS. 6A & 6B, see arrows). The disseminated pink color throughout the section may be due to elevated numbers of possibly adherent capillary red cells. The extent of vascular congestion is exacerbated in the NY-S (NY1DD) mice following 3 hour of hypoxia (10% O2; FIG. 6c). The increased susceptibility of the NY-S (NY1DD) mice to hypoxia-induced lung injury is evidenced both as an increase in the total area of involvement and the size of the vessels congested (see arrow, FIG. 6C).

[2] = test system: leukocyte interactions with the endothelium; assay: Intravital microscopy of exteriorized cremaster muscle, leukocyte adhesion; format: in vivo, NY-S (NY1DD) mice; conditions: no hypoxia
Description: An exteriorized cremaster muscle preparation was used to study the microcirculation in vivo as a means of assaying the effect of the test compounds, e.g., ATL146e, on leukocyte interactions with the endothelium. […] In this experiment, mice were not stressed with hypoxia, but the manipulation of the cremaster tissue for microscopic examination itself produces some rolling and adherence of leukocytes, probably due to release of chemokines from damaged tissue. Adherent leukocytes were defined as those which moved less than one circumference in an observational period (30 seconds/vessel). […]
Microscopic observations were made on a Zeiss intravital microscope (Axioskop, Carl Zeiss, Inc., Thomwood, N.Y.) with a saline immersion objective (SW 40/0.75) visualized under bright field illumination. […] Randomly selected venules with diameters between 19 and 54 μm were recorded for 1.5 minutes.
A MicroMotion DC30 video compression card (Pinnacle Systems, Mountain View, Calif.) was used to digitize video recordings from a JVC HR-53600U VHS recorder into a Macintosh computer (Adobe Premiere software). Digitized video clips were analyzed with the public domain NIH image program with custom-written macros. […] Individual comparisons between groups were calculated using a one-tailed t test with p<0.05.

NY-S (NY1DD) mice [3] = assay: Unrestrained whole-body plethysmography during hypoxic stress; format: in vivo; conditions: 3 hour hypoxic stress (8% O2), Alzet pump, 10 ng/kg/min, overnight
Description: Clinicians have disclosed that breathing disorders can occur in SCD patients during vaso-occlusive crisis (VOC). […] Pain-associated shallow breathing during sickle crisis may contribute to the pathogenesis of acute chest syndrome. To characterize the extent of hypoxia-induced lung injury in NY-S (NY1DD) mice, pulmonary function was assessed using unrestrained whole-body plethysmography during and after exposure to hypoxic air. Naïve NY-S (NY1DD) mice were compared to NY-S (NY1DD) mice which had been treated with ATL146e (Alzet pump, 10 ng/kg/min, overnight). […] Plexiglas chambers (4 in diameter) are connected to a direct airflow sensor (Buxco Max II, Buxco Electronics). Constant airflow through the chambers is maintained at 70 ml/min. The flow signals are amplified by a channel amplifier (EMKA Technologies), converted to a digital signal, and recorded using IOX software (EMKA Technologies). The respiratory parameters minute ventilation (MV, ml/min), respiratory frequency (f, breaths/min), expiratory time (TE, msec), and relaxation time (RT, msec) are calculated and plotted as change over time. The chambers are calibrated by injecting 1 ml of air. The mice are placed unrestrained into the chambers and after a 30 min adjustment period, respiratory activity is recorded while the animal breathes either ambient air or hypoxic gas (8% O2).

NY-S (NY1DD) mice [4] = assay: Gamma camera imaging of hypoxia-sensitive tracer BRU59-21 in lungs; format: in vivo; conditions: 3 hours hypoxia (10% O2)/1 hour reoxygenation; Alzet mini-pump, 10 ng/kg/min, O/N; untreated vs treated
Description: Animals were subject to 3 hours hypoxia (10% O2)/1 hour reoxygenation. After 30 minutes of reoxygenation the mice were given a bolus intra-jugular injection of BRU59-21 (˜300 μCi). At the end of the reoxygenation period planar gamma camera images were taken with a ten minute acquisition window. The images in FIG. 7 show tracer accumulation in the tissues of hypoxic C57BL/6 and NY-S (NY1DD) mice. […] There is a large non-specific signal present in the abdomen due to hepatic metabolism and clearance of the tracer via the intestinal tract. Anterior to the abdominal signal is a bilateral signal which is absent from the C57/B6 mice and localized to the lungs in the NY-S (NY1DD) mouse.
C57BL/6 and NY-S (NY1DD) mice were subject to 3 hour hypoxia/1 hour reperfusion (10% O2). Thirty minutes after the start of the reperfusion period the mice were anesthetized (ketamine 125 mg/kg; xylazine 12.5 mg/kg, IP) and given a bolus intra jugular injection of BRU59-21 (˜300 μCi). At the end of the reperfusion period planar gamma camera images were collected. Anesthetized mice were imaged side-by-side in planar mode directly on the inverted face of a low energy, high resolution (LEHR) collimator mounted on a Siemens Orbiter gamma camera (Siemens Medical Solutions USA, Inc., Malvern Pa.). […]

C57BL/6 MAECs = assay: Static WEHI monocyte adhesion assay on murine aortic endothelial cells; format: cell-based, C57BL/6 mice; conditions: murine TNFα 10 U/ml, positive control
Description: Adhesion of both sickle RBCs and leukocytes in SCD is believed dependent on endothelial activation. […] Murine aortic endothelial cells (MAECs) were prepared from C57BL/6 and NY-S (NY1DD) mice. In a static adhesion assay using WEHI monocytes activation of the endothelium as manifested by increasing monocyte adhesion can be quantified. MAECs prepared from C57BL/6 mice form a monolayer which is not highly activated as assessed by the small number of adherent monocytes. As a positive control for endothelial activation C57BL/6 MAECs were stimulated with murine TNFα (10 U/ml). […] Clearly, the endothelium of NY-S (NY1DD) sickle mice is in a state of activation at baseline.
Aortic endothelial cells from C57BL/6J and NY-S (NY1DD) mice were harvested from the aorta under sterile conditions. A monocyte adhesion assay that utilizes primary MAECs and WEHI78/24 cells were performed according to Hatley et al. WEHI cells are labeled with calcein-AM using standard methods described by the manufacturer (Molecular Probes). For the adhesion assay, MAECs were cultured to confluency in a 48-well plate and incubated with 35,000 calcein-labeled WEHI cells/well for 30 min at 37° C. Non-adherent cells were rinsed, and adherent cells were fixed with 1% glutaraldehyde. The number of adherent monocytes within a 10×10 eyepiece grid at 40× magnification was counted using an epifluorescence microscopy. […]

Row | Molecule | platelet activation in platelet rich plasma (platelets) | severity of hypoxia-induced vascular congestion in lung (NY-S (NY1DD) mice [1]) | leukocyte adhesion (adherent leukocytes/field) ([2]; bolus injection, intraperitoneal, 5 μg/kg, 30 minutes prior to cremaster exteriorization) | leukocyte adhesion (adherent leukocytes/field) ([2]; infusion, Alzet mini-pump, 10 ng/kg/min, overnight) | minute volume (NY-S (NY1DD) mice [3]) | breathing frequency (NY-S (NY1DD) mice [3]; n=2 each group) | lung-specific BRU59-21 signal intensity in thoracic cavity (qualitative) (NY-S (NY1DD) mice [4]) | number of monocytes captured (endothelial activation) (C57BL/6 MAECs)
1 | CCNC(=O)C1OC(n2cnc3c(N)nc(C#CCC4CCC(C(=O)OC)CC4)nc32)C(O)C1O (centres unmarked) [ATL146e, 4-{3-[6-Amino-9-(5-ethylcarbamoyl-3,4-dihydroxy-tetrahydro-furan-2-yl)-9H-purin-2-yl]-prop-2-ynyl}cyclohexanecarboxylic acid methyl ester] | reduced to below control levels | significantly reduced | pronounced reduction in leukocyte adhesion | pronounced reduction in leukocyte adhesion | respiratory stress of hypoxia was alleviated | significantly reduced | significantly more lung-specific signal in the untreated mice | 
2 | TNFα |  |  |  |  |  |  |  | three-fold increase
